Measurements: patent US20160214958A1, “COMPOUNDS AND USE FOR TREATING CANCER” (GLIONOVA AB, priority 2013, published 2016)
Read-outs that look alike come from different tables or passages of the source.

Assays:
[1] = test system: glioma stem cell line U3013; assay: In vitro cancer cell and CSC viability assay (ATP quantification, CellTiterGlo); assay type: cell-based; details: Homo sapiens; 3000 cells/cm2, after 24 hours; read-out: EC50, viability of GSCs
[2] = test system: glioma stem cell line U3013; assay: as above; assay type: cell-based, human; details: for IC95 for cell death: glioblastoma cells (U3013)
Procedure: The ability of Examples S1-S23 to selectively induce cytotoxicity in glioma/glioblastoma cancer cells or glioma/glioblastoma cancer stem cells was determined by quantification of ATP production in glioma stem cell line U3013 in the presence of using CellTiterGlo reagent (Promega). Cells were exposed to compound in serial dilution in the range 1 nM to 50 µM for 24 hours and viability assessed with respect to negative control (dmso, no cell death) and positive control (staurosporine, full cell death). […] The EC50 of S10 remained largely similar at 2, 3 and 4 days of incubation. […] The individual isomers (S21-S23) of racemic S10 were evaluated in order to determine the enantiospecific pharmacology of the individual isomers.
Negative (100% DMSO) and positive (10 mM S10 in 100% DMSO) controls were placed in rows 1-4 and 5-8, respectively, of column 12. The wells were diluted with 190 μl of the corresponding growth media and 5 μl of each well of compound solution transferred to quadruplicate wells of a sterile 384-well black clear bottom plate (BD Falcon) containing GSC at 70% confluency in 45 μl growth media. The plate was incubated for 24 hours, after which the plate was removed from the incubator and each well imaged in bright-field using an Operetta Imaging system (PerkinElmer) at 37° C. and 5% CO2 to determine vacuole accumulation at each concentration. The plate was then allowed to cool to room temperature and each well treated with 25 μl freshly CellTiterGlo (Promega) reagent. The plate was shaken for 15 minutes and luminescence measured using a Victor3 (Perkin Elmer) microtiterplate reader. Total luminescence was normalized relative to control and curve fitting performed using GraphPad Prism (v6.02) software.

[3] = Pharmacokinetic evaluation of Vacquinol-1 stereoisomers, plasma and brain; assay type: in vivo, NMRI (SR/RS) or BALB/c (Vrac) mice; details: for AUClast Plasma / Cmax Brain / tlast Brain / tlast Plasma / AUC(0-t): mice; for AUC(0-t): brain, read-out: AUClast Brain
Procedure: The pharmacokinetics of Vacquinol-1 (racemic), Vacquinol-1RS and Vacquinol-1SR, were determined in NMRI (SR/RS) or BALB/c (Vrac) mice following single intravenous (i.v.) or per oral (p.o) administration of 2 or 20 mg/kg Vacquinol-1, respectively. Blood and brain samples were taken from animals at the following nominal time points: 15, 30, and 60 minutes, and 2, 4, 6, 8, 24, 48, 72 and 144 hours after dosing (n=3/time-point). Bioanalytical quantification of Vacquinol-1 was analysed in plasma and brain samples by a UPLC-MS/MS.
Pharmacokinetics were calculated by non-compartmental analysis (NCA) from composite (mean) profiles. Nominal sampling times and dose levels have been used for the NCA calculations.

[4] = test system: U87 glioma cell; details: at concentrations of 10 micromolar; cited from earlier work

| SMILES | EC50 [1] [µM] | EC50 ([2]; Homo sapiens, U3013, 24 hours exposure, read-out: In vitro efficacy (viability) EC50) [µM] | IC95 for cell death [2] [µM] | potency with respect to S10 (viability) ([2]; individual isomers of racemic S10) | AUClast Plasma ([3]; 2 mg/kg i.v.) [µg·h/mL] | Cmax Brain ([3]; 2 mg/kg i.v.) [ng/mL] | tlast Brain ([3]; 2 mg/kg i.v.) [h] | tlast Plasma ([3]; 2 mg/kg i.v.) [h] | AUClast Plasma ([3]; 20 mg/kg p.o.) [µg·h/mL] | Cmax Brain ([3]; 20 mg/kg p.o.) [ng/mL] | tlast Brain ([3]; 20 mg/kg p.o.) [h] | tlast Plasma ([3]; 20 mg/kg p.o.) [h] | Kp ([3]; NMRI (single stereoisomers SR/RS), BALB/c (racemate), mouse, brain and plasma, 20 mg/kg, after oral dosing, read-out: Cmax exposures ratio (Cmax(brain)/Cmax(plasma))) | AUC(0-t) ([3]; NMRI (single stereoisomers SR/RS), BALB/c (racemate), mouse, iv, 2 mg/kg i.v.) [µg·h/mL] | AUC(0-t) ([3]; NMRI (single stereoisomers SR/RS), BALB/c (racemate), mouse, po, 20 mg/kg p.o.) [µg·h/mL] | reduction of U87 glioma cell viability [4] |
| --- | --- | --- | --- | --- | --- | --- | --- | --- | --- | --- | --- | --- | --- | --- | --- | --- |
| Cn1nnc2c(C(N)=O)ncn2c1=O [temozolomide, reference compound] | 139 |  |  |  |  |  |  |  |  |  |  |  |  |  |  |  |
| O[C@H](c1cc(-c2ccc(Cl)cc2)nc2ccccc12)[C@@H]1CCCCN1 [Compound S20, (R)-(2-(4-chlorophenyl)quinolin-4-yl)((S)-piperidin-2-yl)methanol] |  | 1.72 | 8.9 | equal or increased potency | 62 | 1970 | 144 | 144 | 246 | 4840 | 144 | 144 | 2.2 | 52.7 | 400 |  |
| O[C@@H](c1cc(C(F)(F)F)nc2c(C(F)(F)F)cccc12)[C@H]1CCCCN1 (racemic) [mefloquine, (2,8-bis(trifluoromethyl)quinolin-4-yl)(piperidin-2-yl)methanol, reference compound] |  |  | 25.2 |  |  |  |  |  |  |  |  |  |  |  |  | roughly 50% |
